Key:
[1] = test system: Receptor-type tyrosine-protein kinase FLT3 (Homo sapiens), P36888 [D835Y]; experiment: Inhibition of human […] mutant assessed as residual activity at 1 uM using Poly(Ala,Glu,Lys,Tyr)6:2:5:1 as substrate in presence of 33P-ATP by ProQinase assay relative to control
[2] = target: Dual specificity tyrosine-phosphorylation-regulated kinase 1B (Homo sapiens) (UniProt Q9Y463); experiment: Inhibition of DYRK1B (unknown origin) assessed as remaining activity at 1 uM by Kinome scan method relative to control
[3] = target: Mitogen-activated protein kinase kinase kinase kinase 4 (Homo sapiens) (UniProt O95819); experiment: Inhibition of human MAP4K4 assessed as residual activity at 1 uM using casein as substrate in presence of 33P-ATP by ProQinase assay relative to control
[4] = target: Ribosomal protein S6 kinase alpha-6 (Homo sapiens) (UniProt Q9UK32); experiment: Inhibition of C-terminal kinase domain RPS6KA6 (unknown origin) assessed as remaining activity at 1 uM by Kinome scan method relative to control
[5] = target: Serine/threonine-protein kinase PLK2 (Homo sapiens) (UniProt Q9NYY3); experiment: Inhibition of PLK2 (unknown origin) assessed as remaining activity at 1 uM by Kinome scan method relative to control
[6] = target: CDK7/Cyclin H/MNAT1 (Homo sapiens) (UniProt P51946+P50613+P51948); experiment: Inhibition of human CDK7/CyclinH/MAT1 assessed as residual activity at 1 uM using RBER-CHKtide as substrate in presence of 33P-ATP by ProQinase assay relative to control; type: protein-complex assay
[7] = target: Mitogen-activated protein kinase kinase kinase 9 (Homo sapiens) (UniProt P80192); experiment: Inhibition of MLK1 (unknown origin) assessed as remaining activity at 1 uM by Kinome scan method relative to control
[8] = test system: RAF proto-oncogene serine/threonine-protein kinase (Homo sapiens), P04049 [Y340D,Y341D]; experiment: Inhibition of human RAF1 Y340D/Y341D double mutant assessed as residual activity at 1 uM using MEK1-K97M as substrate in presence of 33P-ATP by ProQinase assay relative to control
[9] = target: Proto-oncogene tyrosine-protein kinase Src (Homo sapiens) (UniProt P12931); experiment: Inhibition of human GST/His-tagged SRC assessed as residual activity at 1 uM using PolyEY as substrate in presence of 33P-ATP by ProQinase assay relative to control
[10] = target: Macrophage colony-stimulating factor 1 receptor (Homo sapiens) (UniProt P07333); experiment: Inhibition of human CSF1R assessed as residual activity at 1 uM using polyEY as substrate in presence of 33P-ATP by ProQinase assay relative to control
[11] = test system: Tyrosine-protein kinase ABL1 (Homo sapiens), P00519 [E255K]; experiment: Inhibition of human ABL1 E255K mutant assessed as residual activity at 1 uM using Poly(Ala,Glu,Lys,Tyr)6:2:5:1 as substrate in presence of 33P-ATP by ProQinase assay relative to control
[12] = target: T1, Tyrosine-protein kinase Tec (Homo sapiens) (UniProt P42680); experiment: Inhibition of human TEC assessed as residual activity at 1 uM using polyEY as substrate in presence of 33P-ATP by ProQinase assay relative to control
T1 sequence (whole entry): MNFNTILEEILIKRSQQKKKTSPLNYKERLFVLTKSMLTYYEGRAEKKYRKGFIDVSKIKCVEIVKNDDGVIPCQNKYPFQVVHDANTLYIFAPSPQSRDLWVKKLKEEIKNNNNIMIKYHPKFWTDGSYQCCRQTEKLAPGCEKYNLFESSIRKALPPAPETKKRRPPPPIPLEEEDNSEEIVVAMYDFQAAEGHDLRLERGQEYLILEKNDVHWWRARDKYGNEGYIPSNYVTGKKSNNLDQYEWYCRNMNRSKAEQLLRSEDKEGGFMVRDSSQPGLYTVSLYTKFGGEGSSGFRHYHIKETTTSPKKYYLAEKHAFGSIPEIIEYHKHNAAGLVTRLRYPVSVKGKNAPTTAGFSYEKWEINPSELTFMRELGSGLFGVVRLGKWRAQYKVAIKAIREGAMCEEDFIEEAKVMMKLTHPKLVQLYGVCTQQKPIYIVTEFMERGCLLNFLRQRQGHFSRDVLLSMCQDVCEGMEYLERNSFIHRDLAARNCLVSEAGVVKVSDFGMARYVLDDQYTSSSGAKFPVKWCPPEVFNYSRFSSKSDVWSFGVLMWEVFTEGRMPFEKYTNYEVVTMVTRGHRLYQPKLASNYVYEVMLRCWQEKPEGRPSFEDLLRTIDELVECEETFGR

[13] = target: Serine/threonine-protein kinase WNK2 (Homo sapiens) (UniProt Q9Y3S1); experiment: Inhibition of human WNK2 assessed as residual activity at 1 uM using RBER-CHKtide as substrate in presence of 33P-ATP by ProQinase assay relative to control
[14] = target: T2, Tyrosine-protein kinase TXK (Homo sapiens) (UniProt P42681); experiment: Inhibition of human TXK assessed as residual activity at 1 uM using RBER-CHKtide as substrate in presence of 33P-ATP by ProQinase assay relative to control
T2 sequence (whole entry): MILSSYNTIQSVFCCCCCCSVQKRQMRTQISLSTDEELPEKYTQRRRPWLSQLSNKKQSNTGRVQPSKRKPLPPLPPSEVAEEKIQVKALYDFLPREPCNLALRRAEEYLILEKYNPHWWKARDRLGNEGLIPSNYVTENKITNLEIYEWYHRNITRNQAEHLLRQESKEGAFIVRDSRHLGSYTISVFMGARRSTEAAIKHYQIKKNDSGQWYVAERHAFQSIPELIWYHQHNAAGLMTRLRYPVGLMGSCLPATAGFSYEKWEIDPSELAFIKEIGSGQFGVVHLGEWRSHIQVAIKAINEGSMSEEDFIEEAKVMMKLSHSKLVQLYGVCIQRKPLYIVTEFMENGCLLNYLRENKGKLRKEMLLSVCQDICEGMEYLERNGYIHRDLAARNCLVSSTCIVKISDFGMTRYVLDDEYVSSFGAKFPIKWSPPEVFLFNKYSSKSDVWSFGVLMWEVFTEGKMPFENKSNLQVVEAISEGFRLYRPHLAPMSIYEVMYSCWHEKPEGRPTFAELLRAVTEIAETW

[15] = test system: Hepatocyte growth factor receptor (Homo sapiens), P08581 [D1228H]; experiment: Inhibition of human MET D1228H mutant assessed as residual activity at 1 uM using poly(Ala,Glu,Lys,Tyr)6:2:5:1 as substrate in presence of 33P-ATP by ProQinase assay relative to control
[16] = target: Serine/threonine-protein kinase ULK2 (Homo sapiens) (UniProt Q8IYT8); experiment: Inhibition of ULK2 (unknown origin) assessed as remaining activity at 1 uM by Kinome scan method relative to control
[17] = target: Proto-oncogene tyrosine-protein kinase ROS (Homo sapiens) (UniProt P08922); experiment: Inhibition of human ROS assessed as residual activity at 1 uM using poly(Ala,Glu,Lys,Tyr)6:2:5:1 as substrate in presence of 33P-ATP by ProQinase assay relative to control

Sequence of Serine/threonine-protein kinase WNK2 (Homo sapiens) (Q9Y3S1 whole entry): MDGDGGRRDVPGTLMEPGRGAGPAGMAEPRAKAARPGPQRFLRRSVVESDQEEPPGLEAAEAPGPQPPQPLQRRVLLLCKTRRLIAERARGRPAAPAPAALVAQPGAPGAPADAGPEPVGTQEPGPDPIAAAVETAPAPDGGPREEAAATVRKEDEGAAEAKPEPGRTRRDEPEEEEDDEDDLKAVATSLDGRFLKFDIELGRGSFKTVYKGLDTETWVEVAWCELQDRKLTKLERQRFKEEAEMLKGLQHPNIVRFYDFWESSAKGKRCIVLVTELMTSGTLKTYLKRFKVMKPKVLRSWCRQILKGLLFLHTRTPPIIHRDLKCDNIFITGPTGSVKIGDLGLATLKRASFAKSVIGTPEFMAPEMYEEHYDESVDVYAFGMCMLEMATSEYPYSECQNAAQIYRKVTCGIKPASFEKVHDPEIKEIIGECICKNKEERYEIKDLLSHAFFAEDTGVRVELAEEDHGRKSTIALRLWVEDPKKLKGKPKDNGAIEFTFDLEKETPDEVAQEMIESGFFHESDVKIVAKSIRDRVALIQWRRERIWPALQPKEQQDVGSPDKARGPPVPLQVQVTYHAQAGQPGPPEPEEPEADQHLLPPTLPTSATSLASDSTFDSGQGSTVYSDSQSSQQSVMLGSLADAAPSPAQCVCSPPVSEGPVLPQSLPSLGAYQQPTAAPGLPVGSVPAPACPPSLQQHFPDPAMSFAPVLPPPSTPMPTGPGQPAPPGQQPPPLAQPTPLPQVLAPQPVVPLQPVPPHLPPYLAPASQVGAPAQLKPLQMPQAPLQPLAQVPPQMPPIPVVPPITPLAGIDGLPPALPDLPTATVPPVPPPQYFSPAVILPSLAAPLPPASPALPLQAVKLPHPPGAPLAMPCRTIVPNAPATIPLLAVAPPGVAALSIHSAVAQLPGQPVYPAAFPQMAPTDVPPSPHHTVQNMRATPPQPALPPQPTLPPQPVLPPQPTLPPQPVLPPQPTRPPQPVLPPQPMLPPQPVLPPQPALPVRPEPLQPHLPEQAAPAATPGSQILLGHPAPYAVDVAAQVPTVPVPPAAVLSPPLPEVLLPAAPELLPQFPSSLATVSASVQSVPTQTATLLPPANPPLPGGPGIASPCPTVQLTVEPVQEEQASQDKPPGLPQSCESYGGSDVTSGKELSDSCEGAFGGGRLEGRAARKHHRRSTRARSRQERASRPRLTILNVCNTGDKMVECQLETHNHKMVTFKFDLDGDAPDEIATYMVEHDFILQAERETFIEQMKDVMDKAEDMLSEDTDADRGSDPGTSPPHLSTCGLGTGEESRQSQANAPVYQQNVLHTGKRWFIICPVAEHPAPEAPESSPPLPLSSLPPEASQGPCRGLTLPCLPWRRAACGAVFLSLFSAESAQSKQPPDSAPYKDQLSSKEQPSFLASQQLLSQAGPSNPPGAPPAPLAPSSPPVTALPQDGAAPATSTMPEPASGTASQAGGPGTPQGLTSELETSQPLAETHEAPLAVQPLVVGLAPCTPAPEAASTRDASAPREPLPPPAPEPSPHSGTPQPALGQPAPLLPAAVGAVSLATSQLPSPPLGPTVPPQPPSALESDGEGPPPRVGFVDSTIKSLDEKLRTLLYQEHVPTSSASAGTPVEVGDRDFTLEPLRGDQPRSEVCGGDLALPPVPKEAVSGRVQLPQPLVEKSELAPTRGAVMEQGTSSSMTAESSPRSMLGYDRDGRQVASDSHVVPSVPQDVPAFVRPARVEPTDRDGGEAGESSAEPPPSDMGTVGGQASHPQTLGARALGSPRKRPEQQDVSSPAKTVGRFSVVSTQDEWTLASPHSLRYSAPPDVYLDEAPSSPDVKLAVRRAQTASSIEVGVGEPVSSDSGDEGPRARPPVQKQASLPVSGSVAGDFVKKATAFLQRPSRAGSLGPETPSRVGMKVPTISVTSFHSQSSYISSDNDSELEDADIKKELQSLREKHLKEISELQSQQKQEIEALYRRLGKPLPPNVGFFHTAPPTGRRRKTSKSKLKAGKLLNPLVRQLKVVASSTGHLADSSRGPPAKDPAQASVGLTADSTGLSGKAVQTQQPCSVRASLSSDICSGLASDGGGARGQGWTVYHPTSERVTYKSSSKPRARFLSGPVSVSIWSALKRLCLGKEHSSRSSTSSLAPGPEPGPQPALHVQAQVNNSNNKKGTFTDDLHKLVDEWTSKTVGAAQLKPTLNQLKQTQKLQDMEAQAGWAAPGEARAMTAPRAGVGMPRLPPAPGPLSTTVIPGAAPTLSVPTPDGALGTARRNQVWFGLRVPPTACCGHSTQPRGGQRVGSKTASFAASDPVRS
Sequence of Serine/threonine-protein kinase ULK2 (Homo sapiens) (Q8IYT8 whole entry): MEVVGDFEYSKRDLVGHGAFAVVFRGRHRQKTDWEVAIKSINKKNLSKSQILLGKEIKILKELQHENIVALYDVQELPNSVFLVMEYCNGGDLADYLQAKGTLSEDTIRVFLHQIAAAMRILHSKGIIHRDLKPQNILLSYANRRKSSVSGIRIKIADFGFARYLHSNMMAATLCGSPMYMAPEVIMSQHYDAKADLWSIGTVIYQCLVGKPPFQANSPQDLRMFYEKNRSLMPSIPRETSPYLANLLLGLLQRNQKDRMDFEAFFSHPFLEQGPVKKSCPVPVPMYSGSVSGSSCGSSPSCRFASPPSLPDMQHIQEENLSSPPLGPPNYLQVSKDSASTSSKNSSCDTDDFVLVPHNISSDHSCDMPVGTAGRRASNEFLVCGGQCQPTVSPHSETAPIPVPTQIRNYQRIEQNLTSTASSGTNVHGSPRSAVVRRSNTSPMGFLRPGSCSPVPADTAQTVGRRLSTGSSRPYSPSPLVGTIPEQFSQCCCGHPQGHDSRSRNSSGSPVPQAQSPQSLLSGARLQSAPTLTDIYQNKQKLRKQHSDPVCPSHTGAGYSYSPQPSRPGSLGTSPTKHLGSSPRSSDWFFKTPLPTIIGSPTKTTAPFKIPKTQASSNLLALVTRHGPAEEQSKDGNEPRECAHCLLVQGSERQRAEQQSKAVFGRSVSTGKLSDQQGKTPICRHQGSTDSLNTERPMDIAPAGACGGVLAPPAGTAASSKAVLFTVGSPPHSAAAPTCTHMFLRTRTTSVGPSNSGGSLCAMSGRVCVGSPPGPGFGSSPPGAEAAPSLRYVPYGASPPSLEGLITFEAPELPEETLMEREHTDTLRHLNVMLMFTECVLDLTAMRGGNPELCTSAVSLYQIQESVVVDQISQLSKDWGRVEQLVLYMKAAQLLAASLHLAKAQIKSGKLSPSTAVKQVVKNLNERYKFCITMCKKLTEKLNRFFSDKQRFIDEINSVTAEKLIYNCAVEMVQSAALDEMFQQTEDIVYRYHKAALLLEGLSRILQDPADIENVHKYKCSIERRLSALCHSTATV
Sequence of Tyrosine-protein kinase ABL1 (Homo sapiens), P00519 [E255K] (P00519 whole entry E255K): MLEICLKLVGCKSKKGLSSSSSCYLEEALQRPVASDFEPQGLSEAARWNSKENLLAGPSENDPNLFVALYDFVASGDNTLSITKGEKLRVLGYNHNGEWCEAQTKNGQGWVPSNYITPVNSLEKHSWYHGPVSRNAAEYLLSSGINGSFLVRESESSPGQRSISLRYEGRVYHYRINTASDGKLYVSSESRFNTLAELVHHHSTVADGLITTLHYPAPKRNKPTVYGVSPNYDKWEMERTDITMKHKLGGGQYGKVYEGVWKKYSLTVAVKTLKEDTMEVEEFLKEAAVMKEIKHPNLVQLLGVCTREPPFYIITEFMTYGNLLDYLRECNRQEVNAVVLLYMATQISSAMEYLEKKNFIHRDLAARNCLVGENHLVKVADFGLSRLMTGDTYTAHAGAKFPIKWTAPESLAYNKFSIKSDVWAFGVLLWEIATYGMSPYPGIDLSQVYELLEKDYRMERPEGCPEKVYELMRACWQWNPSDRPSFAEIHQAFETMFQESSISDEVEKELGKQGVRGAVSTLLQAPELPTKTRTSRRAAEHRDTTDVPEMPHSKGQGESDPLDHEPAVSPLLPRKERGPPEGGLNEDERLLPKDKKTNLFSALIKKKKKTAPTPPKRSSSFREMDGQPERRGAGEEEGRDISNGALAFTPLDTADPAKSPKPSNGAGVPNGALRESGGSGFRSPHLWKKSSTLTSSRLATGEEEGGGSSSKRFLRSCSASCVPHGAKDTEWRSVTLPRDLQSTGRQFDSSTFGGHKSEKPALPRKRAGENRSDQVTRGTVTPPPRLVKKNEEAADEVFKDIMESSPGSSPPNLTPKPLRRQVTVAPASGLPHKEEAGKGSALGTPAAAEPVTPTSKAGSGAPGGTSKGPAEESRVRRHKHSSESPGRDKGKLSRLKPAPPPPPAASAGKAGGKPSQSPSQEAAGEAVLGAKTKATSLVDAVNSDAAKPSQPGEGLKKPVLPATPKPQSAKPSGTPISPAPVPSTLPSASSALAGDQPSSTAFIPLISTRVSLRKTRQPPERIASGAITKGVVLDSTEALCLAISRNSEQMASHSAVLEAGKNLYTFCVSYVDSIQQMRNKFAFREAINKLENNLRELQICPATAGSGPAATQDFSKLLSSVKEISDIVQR
Sequence of Serine/threonine-protein kinase PLK2 (Homo sapiens) (Q9NYY3 whole entry, looked up): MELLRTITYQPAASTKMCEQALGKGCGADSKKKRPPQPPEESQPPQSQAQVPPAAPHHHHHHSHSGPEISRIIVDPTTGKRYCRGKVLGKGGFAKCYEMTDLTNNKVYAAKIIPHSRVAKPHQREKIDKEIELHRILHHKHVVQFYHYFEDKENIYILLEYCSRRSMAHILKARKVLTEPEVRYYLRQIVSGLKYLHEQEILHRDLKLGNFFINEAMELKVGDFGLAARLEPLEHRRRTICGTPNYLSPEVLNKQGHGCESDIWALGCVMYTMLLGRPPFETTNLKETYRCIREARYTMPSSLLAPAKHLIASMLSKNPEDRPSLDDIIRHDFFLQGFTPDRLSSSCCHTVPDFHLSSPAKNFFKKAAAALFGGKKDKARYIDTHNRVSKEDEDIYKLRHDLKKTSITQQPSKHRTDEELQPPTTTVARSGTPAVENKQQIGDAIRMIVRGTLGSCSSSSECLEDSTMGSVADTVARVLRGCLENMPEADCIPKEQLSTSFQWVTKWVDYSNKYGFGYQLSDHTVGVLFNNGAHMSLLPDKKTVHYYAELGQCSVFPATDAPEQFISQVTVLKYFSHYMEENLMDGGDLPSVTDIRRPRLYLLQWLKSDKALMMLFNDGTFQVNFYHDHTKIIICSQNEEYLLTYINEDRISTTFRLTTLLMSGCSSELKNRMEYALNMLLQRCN

Question: Which results are given for `O=C1c2ccc(Nc3ccc(F)cc3F)cc2CCc2ccc(OC[C@H](O)CO)cc21` [Skepinone-L]?
Answer: Activity [1]: 101%; Activity [2]: 82%; Activity [3]: 79%; Activity [4]: 77%; Activity [5]: 100%; Activity [6]: 107%; Activity [7]: 100%; Activity [8]: 91%; Activity [9]: 119%; Activity [10]: 106%; Activity [11]: 105%; Activity [12]: 115%; Activity [13]: 95%; Activity [14]: 93%; Activity [15]: 97%; Activity [16]: 100%; Activity [17]: 102%

Source: ChEMBL document CHEMBL5696441 (Nat Chem Biol, 2011)
